Data as given in PubChem BioAssay AID248 (DTP/NCI, 2004).
Toxic doses and inconclusive results are not listed. Cut-off read from the data, not from the text of the source: active = T/C of 150% or more; inactive = T/C below 125%.

Tested on: L1210 leukemia ip in BDF1 mice, survival T/C
Assay: NCI In Vivo Anticancer Drug Screen. Data for tumor model L1210 Leukemia (intraperitoneal) in B6D2F1 (BDF1) mice
Settings: endpoint: mean survival time, higher = longer survival
Outline: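 Tumor cells were implanted, animals were treated, and survival was followed. The result divides the treated measurement by the vehicle-control measurement.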

[1] = dose: 100.0 mg/kg/injection, schedule: Q04DX003 (ip), vehicle: Klucel (hydroxypropylcellulose) (HPC)
[2] = dose: 200.0 mg/kg/injection, schedule: Q04DX003 (ip), vehicle: Klucel (hydroxypropylcellulose) (HPC)
[3] = dose: 400.0 mg/kg/injection, schedule: Q04DX003 (ip), vehicle: Klucel (hydroxypropylcellulose) (HPC)
[4] = dose: 100.0 mg/kg/injection, schedule: Q04DX003 (ip), vehicle: saline with Tween-80
[5] = dose: 200.0 mg/kg/injection, schedule: Q04DX003 (ip), vehicle: saline with Tween-80
[6] = dose: 400.0 mg/kg/injection, schedule: Q04DX003 (ip), vehicle: saline with Tween-80
[7] = dose: 100.0 mg/kg/injection, schedule: Q01DX009 (ip), vehicle: saline with Tween-80
[8] = dose: 200.0 mg/kg/injection, schedule: Q01DX009 (ip), vehicle: saline with Tween-80

Measured: T/C

CN(C)N=Nc1ccc(C(=O)N/N=C/c2ccc(Br)cc2)cc1
inactive: [1] 94 % of control | [2] 104 % of control | [3] 95 % of control

CC(C)(C)N(O)C(=O)NCCCl
inactive: dose: 100.0 mg/kg/injection, schedule: Q01DX001 (ip), vehicle: Klucel (hydroxypropylcellulose) (HPC) 97 % of control | dose: 200.0 mg/kg/injection, schedule: Q01DX001 (ip), vehicle: Klucel (hydroxypropylcellulose) (HPC) 92 % of control | dose: 400.0 mg/kg/injection, schedule: Q01DX001 (ip), vehicle: Klucel (hydroxypropylcellulose) (HPC) 97 % of control

CC(C)[N+](C(C)C)(C(C)C)C(C)C.[I][Pb]([I])([I])[I]
inactive: [4] 95 % of control | [5] 98 % of control | [6] 93 % of control

O=Cc1ccc(N(c2ccc(C=O)cc2)c2ccc(C=O)cc2)cc1
inactive: [4] 100 % of control | [5] 89 % of control | [6] 92 % of control

CCOC(=O)C(C#N)C(CC)(CC)C1CCCCC1 (configuration not stated)
inactive: dose: 50.0 mg/kg/injection, schedule: Q01DX001 (ip), vehicle: carboxymethylcellulose (CMC) 102 % of control | dose: 100.0 mg/kg/injection, schedule: Q01DX001 (ip), vehicle: carboxymethylcellulose (CMC) 102 % of control | dose: 200.0 mg/kg/injection, schedule: Q01DX001 (ip), vehicle: carboxymethylcellulose (CMC) 96 % of control | dose: 400.0 mg/kg/injection, schedule: Q01DX001 (ip), vehicle: carboxymethylcellulose (CMC) 113 % of control

CCCCNC(=O)Nc1ccc(OC)cc1
inactive: dose: 100.0 mg/kg/injection, schedule: Q01DX009 (ip), vehicle: Klucel (hydroxypropylcellulose) (HPC) 103 % of control | [1] 96 % of control | dose: 200.0 mg/kg/injection, schedule: Q01DX009 (ip), vehicle: Klucel (hydroxypropylcellulose) (HPC) 92 % of control | [2] 93 % of control | dose: 400.0 mg/kg/injection, schedule: Q01DX009 (ip), vehicle: Klucel (hydroxypropylcellulose) (HPC) 90 % of control | [3] 102 % of control

CN(CSc1c(Cl)c(Cl)c(Cl)c(Cl)c1Cl)c1ccccc1
inactive: dose: 100.0 mg/kg/injection, schedule: Q04DX002 (ip), vehicle: Klucel (hydroxypropylcellulose) (HPC) 103 % of control | dose: 200.0 mg/kg/injection, schedule: Q04DX002 (ip), vehicle: Klucel (hydroxypropylcellulose) (HPC) 98 % of control | dose: 400.0 mg/kg/injection, schedule: Q04DX002 (ip), vehicle: Klucel (hydroxypropylcellulose) (HPC) 93 % of control

Fc1ccc2[nH]c3cc4ccncc4cc3c2c1
inactive: dose: 50.0 mg/kg/injection, schedule: Q04DX002 (ip), vehicle: saline 101 % of control | dose: 100.0 mg/kg/injection, schedule: Q04DX002 (ip), vehicle: saline 94 % of control | dose: 200.0 mg/kg/injection, schedule: Q04DX002 (ip), vehicle: saline 94 % of control

O=[N+]([O-])c1ccc(N/N=C\c2ccc(OCc3ccccc3)cc2)c([N+](=O)[O-])c1
inactive: dose: 100.0 mg/kg/injection, schedule: Q01DX001 (ip), vehicle: other 86 % of control

Oc1cc(O)c2c(c1)OC(c1ccc(O)c(O)c1)C(OC1(c3cc(O)c(O)c(O)c3)Oc3cc(O)cc(O)c3C(O)C1O)C2 (configuration not stated)
inactive: [7] 95 % of control | [8] 97 % of control

Oc1ccccc1C1CCCCC1
inactive: dose: 12.5 mg/kg/injection, schedule: Q01DX009 (ip), vehicle: gum acacia 102 % of control | dose: 25.0 mg/kg/injection, schedule: Q01DX009 (ip), vehicle: gum acacia 100 % of control | dose: 50.0 mg/kg/injection, schedule: Q01DX009 (ip), vehicle: gum acacia 98 % of control

CCOCc1nc(N)nc(N)c1-c1cccc(Cl)c1
inactive: [7] 104 % of control | [8] 117 % of control

O=C(CCBr)c1ccc(Cl)cc1
inactive: dose: 6.25 mg/kg/injection, schedule: Q01DX009 (ip), vehicle: saline with Tween-80 93 % of control | dose: 12.5 mg/kg/injection, schedule: Q01DX009 (ip), vehicle: saline with Tween-80 91 % of control | dose: 25.0 mg/kg/injection, schedule: Q01DX009 (ip), vehicle: saline with Tween-80 93 % of control

CCOC(=O)C(C(C)=O)C(c1cccc(O)c1)C(C(C)=O)C(=O)O (configuration not stated)
inactive: dose: 25.6 mg/kg/injection, schedule: Q04DX002 (ip), vehicle: saline with Tween-80 95 % of control | dose: 37.5 mg/kg/injection, schedule: Q01DX009 (ip), vehicle: saline with Tween-80 100 % of control | dose: 64.0 mg/kg/injection, schedule: Q04DX002 (ip), vehicle: saline with Tween-80 91 % of control | dose: 75.0 mg/kg/injection, schedule: Q01DX009 (ip), vehicle: saline with Tween-80 91 % of control | [4] 90 % of control | dose: 150.0 mg/kg/injection, schedule: Q01DX009 (ip), vehicle: saline with Tween-80 94 % of control | dose: 160.0 mg/kg/injection, schedule: Q04DX002 (ip), vehicle: saline with Tween-80 87 % of control | [5] 90 % of control
